Measurements as given in ChEMBL document CHEMBL4334438, “Discovery of novel glycogen synthase kinase-3α inhibitors: Structure-based virtual screening, preliminary SAR and biological evaluation for treatment of acute myeloid leukemia” (Eur J Med Chem, 2019).

Each compound was assayed against Glycogen synthase kinase-3 beta (Homo sapiens, UniProt P49841, H350L) (assay: Inhibition of human GSK-3beta H350L mutant (2 to end residues) at 10 uM using phospho GS2 peptide as substrate after 40 mins by [gamma-33ATP] radiometric assay). Settings: not given.
Sequence of Glycogen synthase kinase-3 beta (P49841 whole entry, looked up, stated change not applied): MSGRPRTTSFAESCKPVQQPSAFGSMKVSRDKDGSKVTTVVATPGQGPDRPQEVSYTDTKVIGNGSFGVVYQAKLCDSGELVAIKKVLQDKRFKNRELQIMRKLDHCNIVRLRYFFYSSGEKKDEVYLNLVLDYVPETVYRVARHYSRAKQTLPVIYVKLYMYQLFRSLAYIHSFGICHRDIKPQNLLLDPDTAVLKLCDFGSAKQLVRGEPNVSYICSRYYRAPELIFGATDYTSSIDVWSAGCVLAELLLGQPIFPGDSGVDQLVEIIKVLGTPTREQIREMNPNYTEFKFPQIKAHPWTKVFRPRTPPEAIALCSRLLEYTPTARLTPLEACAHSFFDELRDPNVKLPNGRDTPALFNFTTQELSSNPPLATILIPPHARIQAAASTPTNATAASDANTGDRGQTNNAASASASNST

SMILES | IC50 [nM]
CCCCOC(=O)c1cc(-c2ccc(/C=C3/NC(=S)NC3=O)o2)ccc1Cl | 1190
NC1=NC(=O)/C(=C\c2ccc(-c3ccccc3[N+](=O)[O-])o2)S1 | 2500
N=C1NC(=O)/C(=C\c2ccc(-c3cccc(C(=O)O)c3)o2)S1 | 308
Cc1c(-c2ccc(/C=C3/SC(=N)NC3=O)o2)ccc([N+](=O)[O-])c1C | 571
O=C1NC(=S)N/C1=C/c1ccc(-c2ccc(Cl)c(Cl)c2)o1 | 678
Cc1ccc(-c2ccc(/C=C3/NC(=S)NC3=O)o2)cc1Cl | 1290
O=C1NC(=S)N/C1=C/c1ccc(-c2cccc(C(=O)O)c2)o1 | 338
CCCOC(=O)c1cc(-c2ccc(/C=C3/NC(=S)NC3=O)o2)ccc1Cl | 405
Cc1ccc(-c2ccc(/C=C3/SC(=N)NC3=O)o2)cc1Cl | 1430

What follows are compounds tested against GSK-3beta (H350L mutant) (Homo sapiens, UniProt P49841, H350L) (assay: Inhibition of human GSK-3beta H350L mutant (2 to end residues) at 10 uM using phospho GS2 peptide as substrate after 40 mins by [gamma-33ATP] radiometric assay relative to control). Settings: human GSK-3beta H350L mutant enzyme (residues 2 to end), probe phospho GS2 peptide.
Sequence of GSK-3beta (H350L mutant) (P49841 whole entry, looked up, stated change not applied, the tested form may be a part): as the sequence (P49841 whole entry, looked up, stated change not applied) above

SMILES | inhibition at 40 min, 10 µM [%]
CCCCOC(=O)c1cc(-c2ccc(/C=C3/NC(=S)NC3=O)o2)ccc1Cl | 55
NC1=NC(=O)/C(=C\c2ccc(-c3ccccc3[N+](=O)[O-])o2)S1 | 82
N=C1NC(=O)/C(=C\c2ccc(-c3cccc(C(=O)O)c3)o2)S1 | 93
Cc1c(-c2ccc(/C=C3/SC(=N)NC3=O)o2)ccc([N+](=O)[O-])c1C | 66
O=C1NC(=S)N/C1=C/c1ccc(-c2ccc(Cl)c(Cl)c2)o1 | 59
Cc1ccc(-c2ccc(/C=C3/NC(=S)NC3=O)o2)cc1Cl | 72
O=C1NC(=S)N/C1=C/c1ccc(-c2cccc(C(=O)O)c2)o1 | 96
CCCOC(=O)c1cc(-c2ccc(/C=C3/NC(=S)NC3=O)o2)ccc1Cl | 81
Cc1ccc(-c2ccc(/C=C3/SC(=N)NC3=O)o2)cc1Cl | 77

These compounds were tested on Glycogen synthase kinase-3 alpha (Homo sapiens), P49840 [UNDEFINED MUTATION] (assay: Inhibition of human GSK-3alpha S449A mutant (2 to end residues) at 10 uM using phospho GS2 peptide as substrate after 40 mins in presence of [gamma-33ATP] by scintillation counting method relative to control). Settings: not given.
Sequence of Glycogen synthase kinase-3 alpha (Homo sapiens), P49840 [UNDEFINED MUTATION] (P49840 whole entry, looked up, stated change not applied): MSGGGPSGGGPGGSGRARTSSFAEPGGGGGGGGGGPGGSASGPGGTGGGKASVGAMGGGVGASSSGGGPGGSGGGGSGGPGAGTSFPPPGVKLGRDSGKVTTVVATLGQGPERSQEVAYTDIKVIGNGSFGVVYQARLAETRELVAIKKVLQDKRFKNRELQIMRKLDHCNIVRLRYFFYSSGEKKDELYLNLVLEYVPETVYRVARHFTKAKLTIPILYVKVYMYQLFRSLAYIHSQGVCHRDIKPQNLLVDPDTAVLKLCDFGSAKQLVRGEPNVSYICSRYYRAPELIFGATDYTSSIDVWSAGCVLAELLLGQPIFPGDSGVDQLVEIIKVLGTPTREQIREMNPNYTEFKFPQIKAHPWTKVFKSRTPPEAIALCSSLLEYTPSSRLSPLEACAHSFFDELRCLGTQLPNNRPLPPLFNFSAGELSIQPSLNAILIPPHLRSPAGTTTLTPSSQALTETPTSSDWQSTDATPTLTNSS

SMILES | inhibition [%]
CCCCOC(=O)c1cc(-c2ccc(/C=C3/NC(=S)NC3=O)o2)ccc1Cl | 65
Nc1nc(CCCc2n[nH]c(N)n2)n[nH]1 | 16
COC(=O)c1ccc(-c2ccc(/C=C3\C(=O)NC(=N)N3C)o2)cc1 | 32
NC1=NC(=O)/C(=C\c2ccc(-c3ccccc3[N+](=O)[O-])o2)S1 | 91
COc1ccc([N+](=O)[O-])cc1-c1ccc(/C=C2/S/C(=N\C(C)=O)NC2=O)o1 | 9
CCCN1C(=O)/C(=C\c2ccc(-c3ccc(Cl)cc3)o2)NC1=S | 17
CC(=O)/N=C1/NC(=O)/C(=C\c2ccc(-c3ccccc3C(=O)O)o2)S1 | 11
CC1=NN(c2cccc(C(=O)O)c2)C(=O)/C1=C\c1ccc(-c2ccc3c(c2)C(=O)NC3=O)o1 | 58
CC(=O)c1cn(CCCCCCCCCCn2cc(C(C)=O)c(=O)[nH]c2=O)c(=O)[nH]c1=O | 13
Cc1[nH]nc2c1C(c1ccnc3ccccc13)C(C#N)=C(N)O2 (configuration not stated) | 6
N#CC1=C(N)Oc2[nH]nc(-c3cccnc3)c2/C1=C1\C(=O)Nc2ccc(Br)cc21 | 2
COc1ccc([N+](=O)[O-])cc1-c1ccc(/C=C2/SC(=N)NC2=O)o1 | 15
CCOc1c(/C=C2/SC(=O)NC2=O)cccc1OC | 54
O=C1NC(=O)N(c2ccc(Br)cc2)C(=O)/C1=C\NCCc1c[nH]c2ccccc12 | 66
N=C1NC(=O)/C(=C\c2ccc(-c3cccc(C(=O)O)c3)o2)S1 | 97
CN1C(=O)/C(=C\c2ccc(-c3cccc(Cl)c3)o2)N(C)C1=S | 13
CCN1C(=O)/C(=C\c2ccc(-c3ccc(Cl)cc3Cl)o2)NC1=S | 26
Cc1c(-c2ccc(/C=C3/SC(=N)NC3=O)o2)ccc([N+](=O)[O-])c1C | 64
N=C1NC(=O)/C(=C\c2ccc(-c3ccc(Cl)c([N+](=O)[O-])c3)o2)S1 | 49
O=C1NC(=S)N/C1=C/c1ccc(-c2ccc(Cl)c(Cl)c2)o1 | 65
O=C(COC(=O)c1cc(O)nc2ccccc12)c1cccc2ccccc12 | 2
N#Cc1cn(CCCN2CCN(CCCn3cc(C#N)c(=O)[nH]c3=O)CC2)c(=O)[nH]c1=O | 2

SMILES | inhibition [%]
O=C1N/C(=N/c2ccccc2)S/C1=C/c1ccc(-c2cccc(C(=O)O)c2)o1 | 15
O=C(O)CCC(=O)N1N=C(c2c(O)nc3ccc(Cl)cc3c2-c2ccccc2)CC1c1ccco1 (configuration not stated) | 67
O=C1NC(=S)N/C1=C/c1ccc(Sc2ccc(Cl)cc2)o1 | 23
Cc1ccc(Cl)cc1-c1ccc(/C=C2/S/C(=N\c3ccccc3)NC2=O)o1 | 0
Cc1ccc(-c2ccc(/C=C3/NC(=S)NC3=O)o2)cc1Cl | 76
Cc1cc([N+](=O)[O-])ccc1-c1ccc(/C=C2/SC(=N)NC2=O)o1 | 44
N#Cc1ccccc1-c1ccc(C=C2C(=O)NC(=S)NC2=O)o1 | 14
CC(=O)/N=C1/NC(=O)/C(=C\c2ccc(-c3ccc(C)c(Cl)c3)o2)S1 | 21
O=C1NC(=S)N/C1=C/c1ccc(-c2cccc(C(=O)O)c2)o1 | 97
O=C1NC(=S)N/C1=C/c1ccc(-c2cc([N+](=O)[O-])ccc2Cl)o1 | 22
CCCOC(=O)c1cc(-c2ccc(/C=C3/NC(=S)NC3=O)o2)ccc1Cl | 88
O=C1N/C(=N/Cc2ccccc2)S/C1=C/c1ccc(-c2ccccc2)o1 | 30
Cc1cc(C)cc(/N=C2/NC(=O)/C(=C\c3ccc(-c4cccc(Cl)c4)o3)S2)c1 | 10
COc1ccc(CNc2cc(-c3ccco3)n[nH]2)cc1 | 1
Cc1ccc(-c2ccc(/C=C3/SC(=N)NC3=O)o2)cc1Cl | 81
COc1cc([N+](=O)[O-])ccc1-c1ccc(/C=C2/SC(=N)NC2=O)o1 | 29
CCCCCSc1nc2c(c(=O)[nH]c(=O)n2C)n1CC(O)COc1ccccc1 (configuration not stated) | 25
O=C1NC(=S)NC(=O)C1=Cc1ccc(-c2cc(Cl)ccc2Cl)o1 | 26
NS(=O)(=O)c1ccc(N/C=C2/C(=O)NC(=O)N(c3ccccc3)C2=O)cc1 | 17
Cc1c(Cl)cccc1-c1ccc(CNc2nc[nH]n2)o1 | 8
COc1ccc(-c2ccc(CNc3n[nH]c(C)n3)o2)cc1Cl | 8
O=C(N/N=C/c1cccnc1)c1cc(-c2cccc3ccccc23)n[nH]1 | 12

SMILES | inhibition [%]
O=C1N/C(=N/c2ccccc2)S/C1=C/c1ccc(-c2ccccc2)o1 | 23
COc1cc(CNc2nn[nH]n2)ccc1OCC(N)=O | 1
COc1cc(CNc2ccc(CNc3nc[nH]n3)cc2)ccc1OCC(=O)NC(C)(C)C | 1
COc1ccc(-c2n[nH]cc2/C=N\NC(=O)c2ccccc2I)cc1OC | 44
CC(=O)/N=C1/NC(=O)/C(=C\c2ccc(-c3ccc(F)cc3F)o2)S1 | 15
NC(=O)Cc1nc2sc3c(c2c(=O)[nH]1)CCN(Cc1ccccc1)C3 | -1
Cc1ccc(SCc2[nH]nc3c2C(c2ccnc4ccccc24)C(C#N)=C(N)O3)cc1 (configuration not stated) | 2
O=C1N/C(=N/c2ccccc2)S/C1=C/c1ccco1 | 21
NC(=O)CSc1nc2c(N)ncnc2n1Cc1ccccc1 | -10
Cc1ccccc1OCC(=O)Nc1ccc(Oc2ccc3c(c2)C(=O)NC3=O)cc1 | 54
O=C1NC(=S)N/C1=C/c1ccc(-c2c(Br)cc([N+](=O)[O-])cc2Br)o1 | 42
O=C(N/N=C/c1cccc(Cl)c1)c1cc(-c2ccc3c4c(cccc24)CC3)[nH]n1 | 52
O=C(O)c1cc(NS(=O)(=O)c2ccc3c4c(cccc24)C(=O)N3)ccc1O | 15
COc1cc(/C=C2/C(=O)NC(=O)N(c3ccccc3)C2=O)ccc1O | 14
N=C1NC(=O)/C(=C\c2ccc(-c3ccc([N+](=O)[O-])cc3Cl)o2)S1 | 20
O=C(CSc1nc2ccccc2[nH]c1=O)Nc1ccc2c(c1)OCO2 | 2
Cc1ccc(OCc2n[nH]c(Nc3ccccc3)n2)cc1 | 5
O=C(CSc1nnc(CCc2nnc(SCC(=O)c3ccccc3)[nH]2)[nH]1)c1ccccc1 | 25
O=C1N/C(=N/c2ccccc2)S/C1=C/c1ccc(Sc2ccc(Cl)cc2)o1 | 47
CCN1C(=O)/C(=C\c2ccc(-c3ccc(C(=O)O)cc3)o2)N(CC)C1=S | 38

These compounds were tested against Glycogen synthase kinase-3 alpha (Homo sapiens, UniProt P49840) (assay: Inhibition of human GSK-3alpha S449A mutant (2 to end residues) using phospho GS2 peptide as substrate after 40 mins in presence of [gamma-33ATP] by scintillation counting method). Settings: not given.
Sequence of Glycogen synthase kinase-3 alpha (P49840 whole entry): as the sequence (P49840 whole entry, looked up, stated change not applied) above

SMILES | IC50 [nM]
CCCCOC(=O)c1cc(-c2ccc(/C=C3/NC(=S)NC3=O)o2)ccc1Cl | 710
NC1=NC(=O)/C(=C\c2ccc(-c3ccccc3[N+](=O)[O-])o2)S1 | 2800
CC1=NN(c2cccc(C(=O)O)c2)C(=O)/C1=C\c1ccc(-c2ccc3c(c2)C(=O)NC3=O)o1 | 6150
O=C(O)CCC(=O)N1N=C(c2c(-c3ccccc3)c3cc(Cl)ccc3[nH]c2=O)CC1c1ccco1 (configuration not stated) | 13000
CCOc1c(/C=C2/SC(=O)NC2=O)cccc1OC | 16800
O=C1NC(=O)N(c2ccc(Br)cc2)C(=O)/C1=C\NCCc1c[nH]c2ccccc12 | 4600
N=C1NC(=O)/C(=C\c2ccc(-c3cccc(C(=O)O)c3)o2)S1 | 207
Cc1c(-c2ccc(/C=C3/SC(=N)NC3=O)o2)ccc([N+](=O)[O-])c1C | 227
O=C1NC(=S)N/C1=C/c1ccc(-c2ccc(Cl)c(Cl)c2)o1 | 370
Cc1ccc(-c2ccc(/C=C3/NC(=S)NC3=O)o2)cc1Cl | 904
O=C1NC(=S)N/C1=C/c1ccc(-c2cccc(C(=O)O)c2)o1 | 145
CCCOC(=O)c1cc(-c2ccc(/C=C3/NC(=S)NC3=O)o2)ccc1Cl | 159
Cc1ccc(-c2ccc(/C=C3/SC(=N)NC3=O)o2)cc1Cl | 301
Cc1ccccc1OCC(=O)Nc1ccc(Oc2ccc3c(c2)C(=O)NC3=O)cc1 | 10200
O=C(N/N=C/c1cccc(Cl)c1)c1cc(-c2ccc3c4c(cccc24)CC3)[nH]n1 | 11200
